According to paper PMC4837341, “Drug target identification using network analysis: Taking active components in Sini decoction as an example” (Scientific Reports, 2016):

Target: T1, TNF-α (recombinant mouse TNF-α) (Mus musculus, UniProt P06804)
T1 construct: recombinant, purchased from Sigma; amine-coupled to CM5 chip
T1 sequence (P06804 80-235): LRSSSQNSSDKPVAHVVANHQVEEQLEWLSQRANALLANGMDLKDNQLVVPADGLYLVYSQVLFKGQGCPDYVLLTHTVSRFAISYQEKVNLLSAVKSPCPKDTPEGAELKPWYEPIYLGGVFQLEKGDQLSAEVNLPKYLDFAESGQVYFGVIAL
Assay: SPR (BIAcore T200, TNF-α immobilised on CM5, […] model)
Assay type: binding

| SMILES | Kd [µM] |
| --- | --- |
| O=c1c(O)c(-c2ccc(O)c(O)c2)oc2cc(O)cc(O)c12 [H11, Quercetin] | 35 |
| Oc1ccc(CC2NCCc3cc(O)c(O)cc32)cc1 (centres unmarked) [S39, Higenamine] | 67 |
